How the values were obtained:
[1] = target: Tyrosine-protein kinase BTK (Homo sapiens, UniProt Q06187); assay: Reversible inhibition of full length recombinant human N-terminal His tagged […] expressed in baculovirus infected Sf9 insect cells using poly (Glu,Tyr)4:1 as substrate pretreated for 2 to 60 mins followed by substrate addition after 1 hr by ADP-Glo luminescence assay
U2932 [2] = assay: Induction of apoptosis in human U2932 cells assessed as induction of PARP cleavage after 48 hrs by immunoblot; type: functional, cell-based
[3] = MRT (0 to t) in Sprague-Dawley rat at 10 mg/kg, po by LC-MS/MS method; type: ADME, organism-based; conditions: in vivo
[4] = target: Aurora kinase A (Homo sapiens) (UniProt O14965); assay: Inhibition of wild-type human partial length AURKA (E122 to K401 residues) expressed in mammalian expression system assessed as residual activity at 1 uM by Kinomescan method relative to control
[5] = target: Protein-tyrosine kinase 6 (Homo sapiens) (UniProt Q13882); assay: Inhibition of wild-type human partial length BRK (L166 to T451 residues) expressed in bacterial expression system assessed as residual activity at 1 uM by Kinomescan method relative to control
Protein-tyrosine kinase 6 (Homo sapiens), sequence (Q13882 whole entry, looked up, the tested form may be a part): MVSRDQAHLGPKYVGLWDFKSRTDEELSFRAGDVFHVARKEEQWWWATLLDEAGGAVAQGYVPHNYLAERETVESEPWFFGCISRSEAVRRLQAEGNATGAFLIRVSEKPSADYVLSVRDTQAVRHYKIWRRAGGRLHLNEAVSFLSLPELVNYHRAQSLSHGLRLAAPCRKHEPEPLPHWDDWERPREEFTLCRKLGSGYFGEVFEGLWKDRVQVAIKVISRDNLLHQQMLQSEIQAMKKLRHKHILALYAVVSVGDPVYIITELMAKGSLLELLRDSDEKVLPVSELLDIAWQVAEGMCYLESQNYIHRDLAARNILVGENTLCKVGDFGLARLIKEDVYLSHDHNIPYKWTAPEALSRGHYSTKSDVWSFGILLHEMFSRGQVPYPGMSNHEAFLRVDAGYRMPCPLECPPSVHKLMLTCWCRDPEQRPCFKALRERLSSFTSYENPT

[6] = target: Serine/threonine-protein kinase BRSK2 (Homo sapiens) (UniProt Q8IWQ3); assay: Inhibition of wild-type human full length BRSK2 (M1 to L674 residues) expressed in bacterial expression system assessed as residual activity at 1 uM by Kinomescan method relative to control
Serine/threonine-protein kinase BRSK2 (Homo sapiens), sequence (Q8IWQ3 whole entry, the tested form may be a part): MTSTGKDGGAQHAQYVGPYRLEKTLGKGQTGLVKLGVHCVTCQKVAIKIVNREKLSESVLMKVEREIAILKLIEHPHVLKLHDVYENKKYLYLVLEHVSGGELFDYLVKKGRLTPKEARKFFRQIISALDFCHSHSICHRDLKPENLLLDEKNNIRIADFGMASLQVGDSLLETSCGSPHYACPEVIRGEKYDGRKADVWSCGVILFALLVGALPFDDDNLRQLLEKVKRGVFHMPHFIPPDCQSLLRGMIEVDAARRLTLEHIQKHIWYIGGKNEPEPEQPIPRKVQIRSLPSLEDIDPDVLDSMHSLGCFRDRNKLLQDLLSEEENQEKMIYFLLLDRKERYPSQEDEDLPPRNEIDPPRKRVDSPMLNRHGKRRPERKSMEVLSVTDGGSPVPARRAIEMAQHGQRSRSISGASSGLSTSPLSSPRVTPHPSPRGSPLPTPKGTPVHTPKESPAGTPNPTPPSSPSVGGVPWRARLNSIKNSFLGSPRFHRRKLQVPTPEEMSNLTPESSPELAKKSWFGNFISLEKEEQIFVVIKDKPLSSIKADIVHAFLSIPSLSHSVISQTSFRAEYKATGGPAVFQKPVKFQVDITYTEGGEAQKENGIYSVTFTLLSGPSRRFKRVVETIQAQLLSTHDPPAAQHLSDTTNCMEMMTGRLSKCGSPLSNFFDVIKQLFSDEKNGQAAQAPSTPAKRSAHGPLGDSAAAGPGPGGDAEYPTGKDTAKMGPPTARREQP

[7] = target: Calcium/calmodulin-dependent protein kinase type 1B (Homo sapiens) (UniProt Q6P2M8); assay: Inhibition of wild-type human partial length CAMK1B (W9 to A311 residues) expressed in mammalian expression system assessed as residual activity at 1 uM by Kinomescan method relative to control
[8] = target: Cyclin-dependent kinase 4 (Homo sapiens) (UniProt P11802); assay: Inhibition of wild-type human full length CDK4 (M1 to E303 residues) expressed in mammalian expression system assessed as residual activity at 1 uM by Kinomescan method relative to control
Cyclin-dependent kinase 4 (Homo sapiens), sequence (P11802 whole entry, the tested form may be a part): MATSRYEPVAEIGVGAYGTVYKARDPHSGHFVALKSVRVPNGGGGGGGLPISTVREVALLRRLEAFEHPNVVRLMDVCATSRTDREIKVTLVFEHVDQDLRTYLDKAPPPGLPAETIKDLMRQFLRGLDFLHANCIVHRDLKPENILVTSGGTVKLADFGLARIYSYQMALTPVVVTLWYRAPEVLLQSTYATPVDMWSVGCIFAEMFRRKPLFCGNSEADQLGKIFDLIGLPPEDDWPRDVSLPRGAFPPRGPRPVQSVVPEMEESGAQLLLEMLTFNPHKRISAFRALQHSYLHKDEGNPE

[9] = target: Cyclin-dependent kinase 5 (Homo sapiens) (UniProt Q00535); assay: Inhibition of wild-type human full length CDK5 (M1 to P292 residues) expressed in bacterial expression system assessed as residual activity at 1 uM by Kinomescan method relative to control
Cyclin-dependent kinase 5 (Homo sapiens), sequence (Q00535 whole entry, looked up, the tested form may be a part): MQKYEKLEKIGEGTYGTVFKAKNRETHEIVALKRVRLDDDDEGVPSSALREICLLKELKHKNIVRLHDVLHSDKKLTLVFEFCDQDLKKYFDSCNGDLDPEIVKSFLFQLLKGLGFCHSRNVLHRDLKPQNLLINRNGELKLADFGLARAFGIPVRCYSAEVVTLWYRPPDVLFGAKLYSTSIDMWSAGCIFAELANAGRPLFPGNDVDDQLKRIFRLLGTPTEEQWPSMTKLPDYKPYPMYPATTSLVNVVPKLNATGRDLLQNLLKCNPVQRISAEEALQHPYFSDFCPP

[10] = target: Dual specificity protein kinase CLK4 (Homo sapiens) (UniProt Q9HAZ1); assay: Inhibition of wild-type human partial length CLK4 (R135 to K481 residues) expressed in bacterial expression system assessed as residual activity at 1 uM by Kinomescan method relative to control
Dual specificity protein kinase CLK4 (Homo sapiens), sequence (Q9HAZ1 whole entry, looked up, the tested form may be a part, canonical isoform): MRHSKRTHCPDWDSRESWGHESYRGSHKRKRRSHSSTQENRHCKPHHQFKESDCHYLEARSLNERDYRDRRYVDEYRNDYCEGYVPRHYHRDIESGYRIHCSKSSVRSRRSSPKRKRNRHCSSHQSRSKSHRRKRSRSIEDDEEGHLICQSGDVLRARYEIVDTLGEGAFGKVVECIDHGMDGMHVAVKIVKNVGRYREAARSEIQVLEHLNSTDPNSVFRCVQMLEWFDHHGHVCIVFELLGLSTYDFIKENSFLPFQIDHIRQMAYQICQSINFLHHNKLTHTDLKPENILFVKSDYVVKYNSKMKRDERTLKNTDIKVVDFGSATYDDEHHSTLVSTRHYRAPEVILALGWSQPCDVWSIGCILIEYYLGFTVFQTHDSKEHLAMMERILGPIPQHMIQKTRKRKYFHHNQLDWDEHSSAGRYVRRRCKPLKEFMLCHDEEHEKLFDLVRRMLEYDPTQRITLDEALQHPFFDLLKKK

[11] = target: Casein kinase I isoform epsilon (Homo sapiens) (UniProt P49674); assay: Inhibition of wild-type human full length CSNK1E (M1 to K416 residues) expressed in bacterial expression system assessed as residual activity at 1 uM by Kinomescan method relative to control
[12] = target: Casein kinase I isoform gamma-1 (Homo sapiens) (UniProt Q9HCP0); assay: Inhibition of wild-type human partial length CSNK1G1 (T15 to S353 residues) expressed in bacterial expression system assessed as residual activity at 1 uM by Kinomescan method relative to control
[13] = target: Homeodomain-interacting protein kinase 4 (Homo sapiens) (UniProt Q8NE63); assay: Inhibition of wild-type human partial length HIPK4 (M1 to V384 residues) expressed in bacterial expression system assessed as residual activity at 1 uM by Kinomescan method relative to control
[14] = target: Serine/threonine-protein kinase ICK (Homo sapiens) (UniProt Q9UPZ9); assay: Inhibition of wild-type human partial length ICK (M1 to P314 residues) expressed in mammalian expression system assessed as residual activity at 1 uM by Kinomescan method relative to control
Serine/threonine-protein kinase ICK (Homo sapiens), sequence (Q9UPZ9 whole entry, the tested form may be a part): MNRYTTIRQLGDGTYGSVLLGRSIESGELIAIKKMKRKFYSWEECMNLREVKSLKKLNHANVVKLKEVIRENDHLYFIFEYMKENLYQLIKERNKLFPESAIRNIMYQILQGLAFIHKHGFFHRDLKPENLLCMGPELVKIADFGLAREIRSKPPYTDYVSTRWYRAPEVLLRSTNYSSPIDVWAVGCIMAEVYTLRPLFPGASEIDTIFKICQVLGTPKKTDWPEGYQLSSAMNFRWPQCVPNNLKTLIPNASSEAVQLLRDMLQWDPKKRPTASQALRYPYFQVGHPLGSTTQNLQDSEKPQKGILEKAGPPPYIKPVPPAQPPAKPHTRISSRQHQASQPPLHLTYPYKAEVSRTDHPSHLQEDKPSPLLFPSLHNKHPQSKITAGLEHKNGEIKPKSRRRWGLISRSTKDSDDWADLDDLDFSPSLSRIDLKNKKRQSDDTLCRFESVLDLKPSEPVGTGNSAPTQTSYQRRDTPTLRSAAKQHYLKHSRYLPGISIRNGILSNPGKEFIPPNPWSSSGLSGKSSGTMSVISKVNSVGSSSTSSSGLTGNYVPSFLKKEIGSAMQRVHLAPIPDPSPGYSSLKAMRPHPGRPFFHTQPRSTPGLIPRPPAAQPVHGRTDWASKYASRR

[15] = target: Mitogen-activated protein kinase 8 (Homo sapiens) (UniProt P45983); assay: Inhibition of wild-type human full length JNK1 (M1 to Q384 residues) expressed in mammalian expression system assessed as residual activity at 1 uM by Kinomescan method relative to control
[16] = target: Serine/threonine-protein kinase LATS2 (Homo sapiens) (UniProt Q9NRM7); assay: Inhibition of wild-type human partial length LATS2 (Q641 to V1088 residues) expressed in mammalian expression system assessed as residual activity at 1 uM by Kinomescan method relative to control
[17] = target: Mitogen-activated protein kinase kinase kinase kinase 5 (Homo sapiens) (UniProt Q9Y4K4); assay: Inhibition of wild-type human partial length MAP4K5 (M1 to P297 residues) expressed in bacterial expression system assessed as residual activity at 1 uM by Kinomescan method relative to control
Mitogen-activated protein kinase kinase kinase kinase 5 (Homo sapiens), sequence (Q9Y4K4 whole entry, looked up, the tested form may be a part): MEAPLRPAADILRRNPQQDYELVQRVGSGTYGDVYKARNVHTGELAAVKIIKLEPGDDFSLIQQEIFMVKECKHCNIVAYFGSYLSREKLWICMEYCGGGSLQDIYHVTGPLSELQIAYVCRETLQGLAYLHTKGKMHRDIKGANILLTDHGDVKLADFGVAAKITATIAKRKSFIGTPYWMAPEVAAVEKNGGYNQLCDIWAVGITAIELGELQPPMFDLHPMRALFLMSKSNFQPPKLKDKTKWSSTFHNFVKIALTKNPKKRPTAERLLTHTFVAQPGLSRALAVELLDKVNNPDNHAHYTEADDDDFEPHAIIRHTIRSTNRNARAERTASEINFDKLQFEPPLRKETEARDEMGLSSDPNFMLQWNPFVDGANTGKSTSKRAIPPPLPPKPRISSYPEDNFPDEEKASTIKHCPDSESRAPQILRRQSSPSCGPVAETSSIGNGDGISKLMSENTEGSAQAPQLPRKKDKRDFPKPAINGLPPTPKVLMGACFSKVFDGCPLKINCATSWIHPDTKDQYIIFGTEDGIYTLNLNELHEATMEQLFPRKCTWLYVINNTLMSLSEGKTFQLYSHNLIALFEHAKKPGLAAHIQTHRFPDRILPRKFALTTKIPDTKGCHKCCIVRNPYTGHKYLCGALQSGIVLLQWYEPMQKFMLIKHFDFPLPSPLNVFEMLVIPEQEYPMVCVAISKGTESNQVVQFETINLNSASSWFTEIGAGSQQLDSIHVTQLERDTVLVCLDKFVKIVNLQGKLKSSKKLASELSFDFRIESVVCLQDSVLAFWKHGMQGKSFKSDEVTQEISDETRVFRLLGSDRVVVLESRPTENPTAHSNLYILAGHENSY

[18] = target: Serine/threonine-protein kinase Nek11 (Homo sapiens) (UniProt Q8NG66); assay: Inhibition of wild-type human partial length NEK11 (M1 to E313 residues) expressed in mammalian expression system assessed as residual activity at 1 uM by Kinomescan method relative to control
[19] = target: Serine/threonine-protein kinase Nek7 (Homo sapiens) (UniProt Q8TDX7); assay: Inhibition of wild-type human full length NEK7 (M1 to S302 residues) expressed in bacterial expression system assessed as residual activity at 1 uM by Kinomescan method relative to control
[20] = target: Cyclin-dependent kinase 18 (Homo sapiens) (UniProt Q07002); assay: Inhibition of wild-type human full length PCTK3 (M3 to F474 residues) expressed in bacterial expression system assessed as residual activity at 1 uM by Kinomescan method relative to control
Cyclin-dependent kinase 18 (Homo sapiens), sequence (Q07002 whole entry, the tested form may be a part): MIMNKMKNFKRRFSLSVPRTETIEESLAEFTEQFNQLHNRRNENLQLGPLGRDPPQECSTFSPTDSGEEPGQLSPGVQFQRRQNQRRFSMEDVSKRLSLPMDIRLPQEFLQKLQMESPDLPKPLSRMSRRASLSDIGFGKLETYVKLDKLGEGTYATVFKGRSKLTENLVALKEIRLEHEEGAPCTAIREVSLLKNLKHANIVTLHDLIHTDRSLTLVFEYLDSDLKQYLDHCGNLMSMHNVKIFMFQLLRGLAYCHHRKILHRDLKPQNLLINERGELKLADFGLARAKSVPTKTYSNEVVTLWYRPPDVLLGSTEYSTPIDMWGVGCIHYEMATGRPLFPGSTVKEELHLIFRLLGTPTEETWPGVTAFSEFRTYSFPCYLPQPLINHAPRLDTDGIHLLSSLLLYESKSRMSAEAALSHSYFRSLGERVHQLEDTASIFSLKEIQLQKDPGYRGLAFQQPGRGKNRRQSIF

[21] = target: 1-phosphatidylinositol 3-phosphate 5-kinase (Homo sapiens) (UniProt Q9Y2I7); assay: Inhibition of wild-type human partial length PIKFYVE (F1512 to C2098 residues) expressed in mammalian expression system assessed as residual activity at 1 uM by Kinomescan method relative to control
[22] = target: Ribosomal protein S6 kinase alpha-5 (Homo sapiens) (UniProt O75582); assay: Inhibition of wild-type human partial length N-terminal RPS6KA5 kinase domain 1 expressed in bacterial expression system assessed as residual activity at 1 uM by Kinomescan method relative to control
Ribosomal protein S6 kinase alpha-5 (Homo sapiens), sequence (O75582 whole entry, looked up, the tested form may be a part): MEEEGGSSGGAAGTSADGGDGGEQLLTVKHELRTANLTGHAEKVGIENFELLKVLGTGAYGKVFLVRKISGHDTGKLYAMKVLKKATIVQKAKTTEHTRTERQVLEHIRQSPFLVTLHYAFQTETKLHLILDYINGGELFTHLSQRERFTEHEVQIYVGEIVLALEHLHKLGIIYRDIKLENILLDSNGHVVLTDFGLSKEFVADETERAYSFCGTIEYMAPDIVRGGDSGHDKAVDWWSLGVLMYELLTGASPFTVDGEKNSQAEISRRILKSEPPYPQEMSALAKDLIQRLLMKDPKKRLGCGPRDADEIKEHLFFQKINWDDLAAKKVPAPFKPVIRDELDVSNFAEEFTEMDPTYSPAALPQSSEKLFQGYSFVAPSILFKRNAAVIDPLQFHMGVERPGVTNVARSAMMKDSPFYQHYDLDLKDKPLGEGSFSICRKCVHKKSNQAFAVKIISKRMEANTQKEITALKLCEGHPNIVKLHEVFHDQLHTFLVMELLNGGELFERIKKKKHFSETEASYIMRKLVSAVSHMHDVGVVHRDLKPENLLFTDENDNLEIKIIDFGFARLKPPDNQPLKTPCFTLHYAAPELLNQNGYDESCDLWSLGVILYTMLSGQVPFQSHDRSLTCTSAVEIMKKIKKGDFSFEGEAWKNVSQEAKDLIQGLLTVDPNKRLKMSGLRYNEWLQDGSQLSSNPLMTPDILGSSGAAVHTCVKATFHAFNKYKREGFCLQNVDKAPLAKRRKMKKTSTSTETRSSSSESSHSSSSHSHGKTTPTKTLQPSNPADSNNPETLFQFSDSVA

[23] = target: Ribosomal protein S6 kinase alpha-5 (Homo sapiens) (UniProt O75582); assay: Inhibition of wild-type human partial length C-terminal RPS6KA5 kinase domain 2 (V390 to T718 residues) expressed in bacterial expression system assessed as residual activity at 1 uM by Kinomescan method relative to control
[24] = target: SRSF protein kinase 2 (Homo sapiens) (UniProt P78362); assay: Inhibition of wild-type human full length SRPK2 (M1 to S686 residues) expressed in bacterial expression system assessed as residual activity at 1 uM by Kinomescan method relative to control
[25] = target: Serine/threonine-protein kinase WNK1 (Homo sapiens) (UniProt Q9H4A3); assay: Inhibition of wild-type human partial length WNK1 (Q194 to A490 residues) expressed in mammalian expression system assessed as residual activity at 1 uM by Kinomescan method relative to control
[26] = target: Serine/threonine-protein kinase WNK2 (Homo sapiens) (UniProt Q9Y3S1); assay: Inhibition of wild-type human partial length WNK2 (V47 to D482 residues) expressed in mammalian expression system assessed as residual activity at 1 uM by Kinomescan method relative to control
U2932 [27] = assay: Induction of apoptosis in human U2932 cells assessed as induction of caspase-3 cleavage after 48 hrs by immunoblot; type: functional, cell-based

C=CC(=O)Nc1cc(Nc2cc(-c3cccc(NC(=O)c4ccc(C(C)(C)C)cc4)c3C)cn(C)c2=O)ccc1C(=O)N1CCOCC1
Ki [1]: 8.9 nM | Activity (U2932 [2]): Dose-dependent effect | MRT last [3]: 1.36 h | Activity [4]: 61% | Activity [5]: 96% | Activity [6]: 92% | Activity [7]: 85% | Activity [8]: 100% | Activity [9]: 90% | Activity [10]: 90% | Activity [11]: 100% | Activity [12]: 98% | Activity [13]: 79% | Activity [14]: 100% | Activity [15]: 100% | Activity [16]: 100% | Activity [17]: 100% | Activity [18]: 97% | Activity [19]: 95% | Activity [20]: 98% | Activity [21]: 96% | Activity [22]: 97% | Activity [23]: 100% | Activity [24]: 94% | Activity [25]: 89% | Activity [26]: 99% | Activity (U2932 [27]): Dose-dependent effect

— ChEMBL document CHEMBL4024706 (Eur J Med Chem, 2017)
